Assay results reported in patent US9144229B2, “Tissue specific expression of antibodies in chickens” (Synageva BioPharma Corp., priority 2002, dated 2015).

Tested on: chicken embryonic stem cells
Test: Titration kill curve of chicken ES cells under puromycin or neomycin selection
Assay type: cell-based
Design: key to Morphology of cES cells: ES cells are present.; ES cells are differentiated.; gone: no morphologically recognizable cells are present
Procedure: In a preferred embodiment, the concentration of puromycin required for selecting transfected cells is calculated as a titration kill curve. Titration kill curves for chicken embryonic stem cells are established by exposing cells in culture to puromycin concentrations varying from 0.0 to 1.0 μg/ml for 10 days (Table 7) and neomycin concentrations varying from 0.0 to 200 μg/ml (Table 8). The medium is changed every 2 days and fresh puromycin or neomycin is added. […] Puromycin concentrations of 0.3-1.0 μg/ml are used for selection of the transfected cultures. Neomycin concentrations over 40 μg/ml eliminated all cES cells within 7 days (Table 8).

SMILES: COc1ccc(C[C@H](N)C(=O)N[C@H]2[C@@H](O)[C@H](n3cnc4c(N(C)C)ncnc43)O[C@@H]2CO)cc1 [puromycin]
- presence of ES cells (0.3 μg/ml puromycin, 3 changes of medium over a six day period): absent from all wells
- Morphology of cES cells (puromycin 0.1 μg/ml, day 1): ES
- Morphology of cES cells (puromycin 0.1 μg/ml, day 2): ES
- Morphology of cES cells (puromycin 0.1 μg/ml, day 3): ES
- Morphology of cES cells (puromycin 0.1 μg/ml, day 4): ES
- Morphology of cES cells (puromycin 0.1 μg/ml, day 5): ES
- Morphology of cES cells (puromycin 0.1 μg/ml, day 6): ES
- Morphology of cES cells (puromycin 0.1 μg/ml, day 7): ES
- Morphology of cES cells (puromycin 0.1 μg/ml, day 8): ES
- Morphology of cES cells (puromycin 0.1 μg/ml, day 9): ES
- Morphology of cES cells (puromycin 0.1 μg/ml, day 10): ES
- Morphology of cES cells (puromycin 0.2 μg/ml, day 1): ES
- Morphology of cES cells (puromycin 0.2 μg/ml, day 2): ES
- Morphology of cES cells (puromycin 0.2 μg/ml, day 3): ES
- Morphology of cES cells (puromycin 0.2 μg/ml, day 4): ES
- Morphology of cES cells (puromycin 0.2 μg/ml, day 5): ES
- Morphology of cES cells (puromycin 0.2 μg/ml, day 6): ES
- Morphology of cES cells (puromycin 0.2 μg/ml, day 7): ES
- Morphology of cES cells (puromycin 0.2 μg/ml, day 8): ES
- Morphology of cES cells (puromycin 0.2 μg/ml, day 9): ES
- Morphology of cES cells (puromycin 0.2 μg/ml, day 10): ES
- Morphology of cES cells (puromycin 0.25 μg/ml, day 1): ES
- Morphology of cES cells (puromycin 0.25 μg/ml, day 2): ES
- Morphology of cES cells (puromycin 0.25 μg/ml, day 3): ES
- Morphology of cES cells (puromycin 0.25 μg/ml, day 4): ES
- Morphology of cES cells (puromycin 0.25 μg/ml, day 5): ES
- Morphology of cES cells (puromycin 0.25 μg/ml, day 6): diff
- Morphology of cES cells (puromycin 0.25 μg/ml, day 7): diff
- Morphology of cES cells (puromycin 0.25 μg/ml, day 8): diff/
- Morphology of cES cells (puromycin 0.25 μg/ml, day 9): diff/
- Morphology of cES cells (puromycin 0.25 μg/ml, day 10): diff/
- Morphology of cES cells (puromycin 0.3 μg/ml, day 1): ES
- Morphology of cES cells (puromycin 0.3 μg/ml, day 2): ES
- Morphology of cES cells (puromycin 0.3 μg/ml, day 3): diff
- Morphology of cES cells (puromycin 0.3 μg/ml, day 4): diff/
- Morphology of cES cells (puromycin 0.3 μg/ml, day 5): diff/
- Morphology of cES cells (puromycin 0.3 μg/ml, day 6): gone
- Morphology of cES cells (puromycin 0.3 μg/ml, day 7): gone
- Morphology of cES cells (puromycin 0.3 μg/ml, day 8): gone
- Morphology of cES cells (puromycin 0.3 μg/ml, day 9): gone
- Morphology of cES cells (puromycin 0.3 μg/ml, day 10): gone
- Morphology of cES cells (puromycin 0.4 μg/ml, day 1): ES
- Morphology of cES cells (puromycin 0.4 μg/ml, day 2): diff
- Morphology of cES cells (puromycin 0.4 μg/ml, day 3): gone
- Morphology of cES cells (puromycin 0.4 μg/ml, day 4): gone
- Morphology of cES cells (puromycin 0.4 μg/ml, day 5): gone
- Morphology of cES cells (puromycin 0.4 μg/ml, day 6): gone
- Morphology of cES cells (puromycin 0.4 μg/ml, day 7): gone
- Morphology of cES cells (puromycin 0.4 μg/ml, day 8): gone
- Morphology of cES cells (puromycin 0.4 μg/ml, day 9): gone
- Morphology of cES cells (puromycin 0.4 μg/ml, day 10): gone
- Morphology of cES cells (puromycin 0.5 μg/ml, day 1): diff
- Morphology of cES cells (puromycin 0.5 μg/ml, day 2): gone
- Morphology of cES cells (puromycin 0.5 μg/ml, day 3): Gone
- Morphology of cES cells (puromycin 0.5 μg/ml, day 4): gone
- Morphology of cES cells (puromycin 0.5 μg/ml, day 5): gone
- Morphology of cES cells (puromycin 0.5 μg/ml, day 6): gone
- Morphology of cES cells (puromycin 0.5 μg/ml, day 7): gone
- Morphology of cES cells (puromycin 0.5 μg/ml, day 8): gone
- Morphology of cES cells (puromycin 0.5 μg/ml, day 9): gone
- Morphology of cES cells (puromycin 0.5 μg/ml, day 10): gone
- Morphology of cES cells (puromycin 0.6 μg/ml, day 1): diff
- Morphology of cES cells (puromycin 0.6 μg/ml, day 2): gone
- Morphology of cES cells (puromycin 0.6 μg/ml, day 3): gone
- Morphology of cES cells (puromycin 0.6 μg/ml, day 4): gone
- Morphology of cES cells (puromycin 0.6 μg/ml, day 5): gone
- Morphology of cES cells (puromycin 0.6 μg/ml, day 6): gone
- Morphology of cES cells (puromycin 0.6 μg/ml, day 7): gone
- Morphology of cES cells (puromycin 0.6 μg/ml, day 8): gone
- Morphology of cES cells (puromycin 0.6 μg/ml, day 9): gone
- Morphology of cES cells (puromycin 0.6 μg/ml, day 10): gone
- Morphology of cES cells (puromycin 0.7 μg/ml, day 1): diff
- Morphology of cES cells (puromycin 0.7 μg/ml, day 2): gone
- Morphology of cES cells (puromycin 0.7 μg/ml, day 3): gone
- Morphology of cES cells (puromycin 0.7 μg/ml, day 4): gone
- Morphology of cES cells (puromycin 0.7 μg/ml, day 5): gone
- Morphology of cES cells (puromycin 0.7 μg/ml, day 6): gone
- Morphology of cES cells (puromycin 0.7 μg/ml, day 7): gone
- Morphology of cES cells (puromycin 0.7 μg/ml, day 8): gone
- Morphology of cES cells (puromycin 0.7 μg/ml, day 9): gone
- Morphology of cES cells (puromycin 0.7 μg/ml, day 10): gone
- Morphology of cES cells (puromycin 0.8 μg/ml, day 1): gone
- Morphology of cES cells (puromycin 0.8 μg/ml, day 2): gone
- Morphology of cES cells (puromycin 0.8 μg/ml, day 3): gone
- Morphology of cES cells (puromycin 0.8 μg/ml, day 4): gone
- Morphology of cES cells (puromycin 0.8 μg/ml, day 5): gone
- Morphology of cES cells (puromycin 0.8 μg/ml, day 6): gone
- Morphology of cES cells (puromycin 0.8 μg/ml, day 7): gone
- Morphology of cES cells (puromycin 0.8 μg/ml, day 8): gone
- Morphology of cES cells (puromycin 0.8 μg/ml, day 9): gone
- Morphology of cES cells (puromycin 0.8 μg/ml, day 10): gone
